Results on 18 molecules are retold here after patent publication US10689400B2, “Macrocycle kinase inhibitors” (Turning Point Therapeutics, Inc., priority 2016, dated 2020).

Test [1] deals with KM12 cells (harboring endogenous TPM3-TRKA fusion gene). Description: KM12 cell proliferation assay (CellTiter-Glo, 72 hours). The settings on record: Homo sapiens, KM12 colorectal cell line, 72 hours incubation. The class given is cell-based. On the procedure: (§1) Colorectal cell lines KM 12 (harboring endogenous TPM3-TRKA fusion gene) cells were cultured in DMEM medium, supplemented with 10% fetal bovine serum and 100 U/mL of penicillin/streptomycin. 5000 cells were seeded in 384 well white plate for 24 hours before compounds treatment. Cell proliferation was measured using CellTiter-Glo luciferase-based ATP detection assay (Promega) following the manufactures's protocol after 72 hours incubation. IC50 determinations were performed using GraphPad Prism software (GraphPad, Inc., San Diego, Calif.).
as §1, with “Alternatively: Colorectal” for “Colorectal”, “line KM12” for “lines KM 12”, “DMEM medium, supplemented with 10% fetal bovine serum and 100 U/mL of penicillin/streptomycin. Essential thrombocythemia cell line SET-2 cells (harboring endogenous JAK2 V618F point mutation) were cultured in RPMI” for “DMEM”

Test [2] has as its system SET-2 cells (harboring endogenous JAK2 V618F point mutation). Description: SET-2 cell proliferation assay (CellTiter-Glo, 72 hours). The test is classed as cell-based. The note with it: Homo sapiens, SET-2 essential thrombocythemia cell line, 72 hours incubation, read-out: Cell Proliferation JAK2 SET2 Cell IC50. On the procedure: as §1, with “Alternatively: Colorectal” for “Colorectal”, “line KM12” for “lines KM 12”, “DMEM medium, supplemented with 10% fetal bovine serum and 100 U/mL of penicillin/streptomycin. Essential thrombocythemia cell line SET-2 cells (harboring endogenous JAK2 V618F point mutation) were cultured in RPMI” for “DMEM”

The next test concerns the target T1, BTK kinase (Homo sapiens, UniProt Q06187).
T1 construct: purchased Eurofins (KinaseProfiler) / Reaction Biology Corporation
Description: BTK biochemical kinase assay (radiometric; Eurofins KinaseProfiler / Reaction Biology). The settings on record: ATP 10 μM. On the procedure:
The Compounds were tested against BTK kinase using the Eurofins standard KinaseProfiler™ assays and following the relevant standard operating procedures. Protein kinases were assayed in a radiometric format. Full details of the assay for each kinase are available on the Eurofins website, or in the accompanying protocol document. All compounds were prepared to a working stock of 50× final assay concentration in 100% DMSO. Where appropriate, more concentrated stocks were diluted manually to 50× using 100% DMSO. Compounds supplied as powders were reconstituted to a 10 mM stock in 100% DMSO before further dilution to 50×. The required volume of the 50× stock of test compound was added to the assay well, before a reaction mix containing the enzyme and substrate was added. The reaction was initiated by the addition of ATP at the selected 10 μM concentration. There was no pre-incubation of the compound with the enzyme/substrate mix prior to ATP addition. For IC50 determinations, data are analysed using XLFit version 5.3 (ID Business Solutions). Sigmoidal dose-response (variable slope) curves are fit based on the mean result for each test concentration using non-linear regression analysis. Where the top and/or bottom of the curve fall >10% out with 100 and 0, respectively, either or both of these limits may be constrained at 100 and 0, provided that the QC criterion on R^2 is met.
The BTK biochemical kinase assay was also performed at Reaction Biology Corporation (www.reactionbiology.com, Malvern, Pa.) following the procedures described in the reference (Anastassiadis T, et al Nat Biotechnol. 2011, 29, 1039). Specific kinase/substrate pairs along with required cofactors were prepared in reaction buffer; 20 mM Hepes pH 7.5, 10 mM MgCl2, 1 mM EGTA, 0.02% Brij35, 0.02 mg/ml BSA, 0.1 mM Na3VO4, 2 mM DTT, 1% DMSO (for specific details of individual kinase reaction components see Supplementary Table 2). Compounds were delivered into the reaction, followed ˜20 minutes later by addition of a mixture of ATP (Sigma, St. Louis Mo.) and ^33P ATP (Perkin Elmer, Waltham Mass.) to a final concentration of 10 μM. Reactions were carried out at room temperature for 120 min, followed by spotting of the reactions onto P81 ion exchange filter paper (Whatman Inc., Piscataway, N.J.). Unbound phosphate was removed by extensive washing of filters in 0.75% phosphoric acid. […] IC50 values and curve fits were obtained using Prism (GraphPad Software).

T1 sequence (Q06187 whole entry): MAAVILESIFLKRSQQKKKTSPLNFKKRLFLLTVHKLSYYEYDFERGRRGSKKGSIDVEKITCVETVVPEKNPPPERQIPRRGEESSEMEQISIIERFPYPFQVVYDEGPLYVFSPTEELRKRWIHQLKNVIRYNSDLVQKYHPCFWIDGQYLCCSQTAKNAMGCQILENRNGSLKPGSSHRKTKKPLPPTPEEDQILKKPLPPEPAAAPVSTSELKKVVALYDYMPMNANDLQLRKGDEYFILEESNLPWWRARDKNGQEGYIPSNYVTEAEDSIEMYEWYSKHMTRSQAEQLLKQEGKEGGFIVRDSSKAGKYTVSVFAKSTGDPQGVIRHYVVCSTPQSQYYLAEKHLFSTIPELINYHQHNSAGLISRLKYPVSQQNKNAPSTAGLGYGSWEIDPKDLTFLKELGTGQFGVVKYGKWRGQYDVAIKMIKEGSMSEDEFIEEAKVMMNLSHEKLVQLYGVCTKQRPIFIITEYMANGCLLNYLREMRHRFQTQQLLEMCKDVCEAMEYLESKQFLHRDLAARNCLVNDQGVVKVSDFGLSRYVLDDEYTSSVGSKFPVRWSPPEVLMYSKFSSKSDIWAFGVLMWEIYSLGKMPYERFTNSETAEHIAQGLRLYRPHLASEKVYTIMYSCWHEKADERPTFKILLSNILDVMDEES

`CC(C)N1Cc2cc(F)cc(F)c2OCCCNC(=O)c2cnn3ccc1nc23` [Compound 12, 10,12-difluoro-15-(propan-2-yl)-5,6,7,8,14,15-hexahydro-4H-1,16-ethenopyrazolo[4,3-g][1,5,9,11]benzoxatriazacyclotetradecin-4-one]: the IC50 was 0.2 nM in test [1], 5000 nM in test [2] and 9.67 nM at BTK kinase.

`C[C@H]1CNC(=O)c2cnn3ccc(nc23)N[C@H](C)c2cc(F)cc(-c3cnn(C)c3)c2O1` [Compound 18, (7S,13R)-11-fluoro-7,13-dimethyl-9-(1-methyl-1H-pyrazol-4-yl)-6,7,13,14-tetrahydro-1,15-ethenopyrazolo[4,3-f][1,4,8,10]benzoxatriazacyclotridecin-4(5H)-one]: the values for the IC50 (in test [1]; in test [2]; on BTK kinase) were 23.5 nM, 600 nM and 60 nM, respectively.

In the case of `C[C@H]1Nc2ccn3ncc(c3n2)C(=O)NC[C@@H](CO)Oc2c(F)cc(F)cc21` [Compound 3, (7S,13R)-9,11-difluoro-7-(hydroxymethyl)-13-methyl-6,7,13,14-tetrahydro-1,15-ethenopyrazolo[4,3-f][1,4,8,10]benzoxatriazacyclotridecin-4(5H)-one], the IC50 was 21.5 nM in test [1] and 15.5 nM in test [2].

For the molecule `C[C@H]1CNC(=O)c2cnn3ccc(nc23)N[C@H](C)c2c(ccc(F)c2Cl)O1` [Compound 2, (7S,13R)-12-chloro-11-fluoro-7,13-dimethyl-6,7,13,14-tetrahydro-1,15-ethenopyrazolo[4,3-f][1,4,8,10]benzoxatriazacyclotridecin-4(5H)-one], the IC50 amounted to 5.1 nM in test [1], 3000 nM in test [2] and 2.53 nM on BTK kinase.

As to `CC(C)N1Cc2cc(F)cc(F)c2OCCNC(=O)c2cnn3ccc1nc23` [Compound 9, 9,11-difluoro-14-(propan-2-yl)-6,7,13,14-tetrahydro-1,15-ethenopyrazolo[4,3-f][1,4,8,10]benzoxatriazacyclotridecin-4(5H)-one], the IC50 in test [1] is 5.2 nM; in test [2], 132 nM; against BTK kinase, 22.2 nM.

Consider `CC(C)N1Cc2cc(F)cc(Cl)c2OCCNC(=O)c2cnn3ccc1nc23` [Compound 10, 9-chloro-11-fluoro-14-(propan-2-yl)-6,7,13,14-tetrahydro-1,15-ethenopyrazolo[4,3-f][1,4,8,10]benzoxatriazacyclotridecin-4(5H)-one], for which the IC50 stood at 0.1 nM in test [1], 1480 nM in test [2] and 179 nM against BTK kinase.

Take `Cc1nn(C)cc1-c1cc(F)cc2c1O[C@@H](C)CNC(=O)c1cnn3ccc(nc13)N[C@@H]2C` [Compound 20, (7S,13R)-9-(1,3-dimethyl-1H-pyrazol-4-yl)-11-fluoro-7,13-dimethyl-6,7,13,14-tetrahydro-1,15-ethenopyrazolo[4,3-f][1,4,8,10]benzoxatriazacyclotridecin-4(5H)-one]: the IC50 in test [1] amounted to 6.4 nM; at BTK kinase, 238 nM.

`C[C@H]1CNC(=O)c2cnn3ccc(nc23)N[C@H](C)c2cc(F)cc(F)c2O1` [Compound 1, (7S,13R)-9,11-difluoro-7,13-dimethyl-6,7,13,14-tetrahydro-1,15-ethenopyrazolo[4,3-f][1,4,8,10]benzoxatriazacyclotridecin-4(5H)-one]: the IC50 in test [1] was 0.2 nM; in test [2] it was 120 nM; against BTK kinase, 2.47 nM.

Consider `COc1cc(F)cc2c1OCCNC(=O)c1cnn3ccc(nc13)N[C@@H]2C` [Compound 16, (13R)-11-fluoro-9-methoxy-13-methyl-6,7,13,14-tetrahydro-1,15-ethenopyrazolo[4,3-f][1,4,8,10]benzoxatriazacyclotridecin-4(5H)-one], for which the IC50 in test [1] was 13.9 nM; in test [2], 300 nM; at BTK kinase it was 450 nM.

For `CC(C)Oc1cc(F)cc2c1OCCNC(=O)c1cnn3ccc(nc13)N[C@@H]2C` [Compound 15, (13R)-11-fluoro-13-methyl-9-[(propan-2-yl)oxy]-6,7,13,14-tetrahydro-1,15-ethenopyrazolo[4,3-f][1,4,8,10]benzoxatriazacyclotridecin-4(5H)-one], the IC50 in test [1] was determined as 2 nM; in test [2], 500 nM; at BTK kinase it was 154 nM.

As for `C[C@H]1CNC(=O)c2cnn3ccc(nc23)N[C@H](C)c2cc(F)cc(Br)c2O1` [Compound 7, (7S,13R)-9-bromo-11-fluoro-7,13-dimethyl-6,7,13,14-tetrahydro-1,15-ethenopyrazolo[4,3-f][1,4,8,10]benzoxatriazacyclotridecin-4(5H)-one], the IC50 worked out at 0.2 nM in test [1] and 6.7 nM in test [2].

As to `CC(C)N1Cc2c(ccc(F)c2Cl)O[C@@H](C)CNC(=O)c2cnn3ccc1nc23` [Compound 14, (7S)-12-chloro-11-fluoro-7-methyl-14-(propan-2-yl)-6,7,13,14-tetrahydro-1,15-ethenopyrazolo[4,3-f][1,4,8,10]benzoxatriazacyclotridecin-4(5H)-one], the IC50 turned out to be 0.2 nM in test [1], 1500 nM in test [2] and 0.536 nM against BTK kinase.

Turning to `C[C@H]1Nc2ccn3ncc(c3n2)C(=O)NCCOc2c(O)cc(F)cc21` [Compound 17, (13R)-11-fluoro-9-hydroxy-13-methyl-6,7,13,14-tetrahydro-1,15-ethenopyrazolo[4,3-f][1,4,8,10]benzoxatriazacyclotridecin-4(5H)-one], the IC50 in test [1] came to 15.4 nM; in test [2], 600 nM; on BTK kinase, 48 nM.

`C[C@H]1Nc2ccn3ncc(c3n2)C(=O)NC[C@@H](CO)Oc2ccc(F)c(Cl)c21` [Compound 4, (7S,13R)-12-chloro-11-fluoro-7-(hydroxymethyl)-13-methyl-6,7,13,14-tetrahydro-1,15-ethenopyrazolo[4,3-f][1,4,8,10]benzoxatriazacyclotridecin-4(5H)-one]: the IC50 in test [1] was 45.4 nM; in test [2], 3000 nM.

As to `CC(C)N1Cc2c(ccc(F)c2Cl)OCCNC(=O)c2cnn3ccc1nc23` [Compound 13, 12-chloro-11-fluoro-14-(propan-2-yl)-6,7,13,14-tetrahydro-1,15-ethenopyrazolo[4,3-f][1,4,8,10]benzoxatriazacyclotridecin-4(5H)-one], the values for the IC50 (in test [1]; in test [2]; against BTK kinase) were 300 nM, 10000 nM and 5.54 nM, respectively.

Regarding `C[C@H]1CNC(=O)c2cnn3ccc(nc23)N[C@H](C)c2c(ccc(F)c2F)O1` [Compound 11, (7S,13R)-11,12-difluoro-7,13-dimethyl-6,7,13,14-tetrahydro-1,15-ethenopyrazolo[4,3-f][1,4,8,10]benzoxatriazacyclotridecin-4(5H)-one], the IC50 in test [1] was determined as 0.2 nM; in test [2], 3.9 nM; at BTK kinase, 14.2 nM.

As for `C[C@H]1Nc2ccn3ncc(c3n2)C(=O)NCCOc2c(-c3cnn(C)c3)cc(F)cc21` [Compound 19, (13R)-11-fluoro-13-methyl-9-(1-methyl-1H-pyrazol-4-yl)-6,7,13,14-tetrahydro-1,15-ethenopyrazolo[4,3-f][1,4,8,10]benzoxatriazacyclotridecin-4(5H)-one], the IC50 in test [1] turned out to be 53.4 nM; in test [2], 1000 nM; against BTK kinase, 476 nM.

Take `C[C@H]1Nc2ccn3ncc(c3n2)C(=O)NCCOc2c(Br)cc(F)cc21` [Compound 5, (13R)-9-bromo-11-fluoro-13-methyl-6,7,13,14-tetrahydro-1,15-ethenopyrazolo[4,3-f][1,4,8,10]benzoxatriazacyclotridecin-4(5H)-one]: the results for the IC50 (in test [1]; in test [2]; on BTK kinase) were 5 nM, 200 nM and 60 nM, respectively.
